According to patent US20250115648A1 (priority 2013, published 2025):
“And” between values parts separate entries of the source, which are not always exact repeats. Identical values can stand only once.

What was measured:
[1] = system: U87 flank xenografts; parameters: species or system mice; conditions: mouse, in vivo
[2] = mouse, in vivo
[3] = system: CD-1 mice; assay: Activity level of CD-1 mice after injection of free peptides; conditions: high dose (200 nmol), IV, starting 3 minutes post injection
[4] = cited from earlier work; for Peak Abs.: peak absorbance wavelength of exemplary fluorescent reporter molecule; for Peak Em.: peak emission wavelength of exemplary fluorescent reporter molecule

Molecule	Peak Abs. [4]	Peak Em. [4]	further results
CC1(C)C(/C=C/C=C/C=C/C=C2\N(CCCCS(=O)(=O)[O-])c3ccc4ccccc4c3C2(C)C)=[N+](CCCCS(=O)(=O)[O-])c2ccc3ccccc3c21.[Na+] [ICG free dye, Cardiogreen (ICG)]			Targeting / detection in tumor tissue [1]: not detected; Detection in fecal matter [2]: detectable in the fecal matter; Detection in liver, kidney, spleen, or brain [2]: not detectable
Chlorotoxin [KNT-01]			Activity level after free peptide injection [3]: decrease in activity level, somnolence, and prostration
CCN1C(=CC=CC=CC=CC2=[N+](CCCCCC(=O)O)c3ccc(S(=O)(=O)O)cc3C2(C)C)C(C)(C)c2cc(S(=O)(=O)[O-])ccc21 [Cy7]	745 nanometers	766 nanometers	
Cl.Cl.N=C(N)c1ccc2oc(/C=C/c3cc4cc(C(=N)N)ccc4o3)cc2c1 [True Blue]	365 nanometers	425 nanometers	
O=c1ccc2nc3ccc(O)c([As]4SCCS4)c3oc-2c1[As]1SCCS1 [ReAsH (TC-ReAsH)]	593 nanometers	608 nanometers	
CC(=O)Oc1ccc2c(c1)Oc1cc(OC(C)=O)ccc1C21OC(=O)c2cc(CCl)ccc21 [CellTracker Green]	490 nanometers	540 nanometers	
O=S(=O)(O)c1cccc2cccc(Nc3ccccc3)c12 [1,8-ANS]	372 nanometers	480 nanometers	
O=C1OC2(c3ccc(O)cc3Oc3cc(O)ccc32)c2ccc(N=C=S)cc21 [FITC (Fluorescein), fluorescein isothiocyanine]	492 nanometers	520 nanometers	
CC[N+]1=c2cc3c(cc2C(CS(=O)(=O)O)=CC1(C)C)=Cc1cc2c(cc1C3(C)C)N(CCCC(=O)O)C(C)(C)CC2C.[O-][Cl+3]([O-])([O-])[O-] (stereo not drawn) [ATTO 647]	644 nanometers	670 nanometers	
O=S(=O)([O-])c1cc(Nc2nc(Nc3ccccc3)nc(N(CCO)CCO)n2)ccc1/C=C/c1ccc(Nc2nc(Nc3ccccc3)nc(N(CCO)CCO)n2)cc1S(=O)(=O)[O-].[Na+].[Na+] [Phorwite AR]	360 nanometers	430 nanometers	
CCCCCCCCCCCC[N+](C)(CCCS(=O)(=O)[O-])Cc1ccc2oc(-c3ccc(N(CC)CC)cc3)c(O)c(=O)c2c1 (stereo not drawn) [Compound F2N12S]	405 nanometers		
Nc1ccc2cc3ccc(N)cc3[n+](CCCC(=O)O)c2c1.[O-][Cl+3]([O-])([O-])[O-] [ATTO 465]	453 nanometers	507 nanometers	
carboxy-X-rhodamine [ROX (6-ROX)]	568 nanometers	595 nanometers	
Allophycocyanin [APC (Allophycocyanin)]	651 nanometers	660 nanometers	
O=S(=O)([O-])c1cc(O)c2ccc3c(S(=O)(=O)[O-])cc(S(=O)(=O)[O-])c4ccc1c2c34.[Na+].[Na+].[Na+] [HPTS (Solvent Green 7)]	455 nanometers	510 nanometers	
CCN(CC)c1ccc(/C=C/C=C/c2cc[n+](CC(O)C[N+](C)(C)CCO)cc2)cc1.[Br-].[Br-] (stereo not drawn) [RH 795]	530 nanometers	712 nanometers	
CCCN(CCCN(C)C)c1cc(/C=C2/Sc3ccccc3N2C)c2ccccc2[n+]1-c1ccccc1 [SYBR Green I]	497 nanometers	521 nanometers	
CFP: Exemplary fluorescent reporter molecules	434 nanometers		
Nitrobenzoxadiazole	465 nanometers	510 nanometers	
CCCCCCCCCCCCc1cc2nc3ccc(O)cc3oc-2cc1=O [2-dodecylresorufm]	582 nanometers	595 nanometers	
Cascade Blue	400 nanometers and 377 nanometers	420 nanometers	
CN1/C(=C/C=C/c2cc[n+](CCC[N+](C)(C)CCC[N+](C)(C)CCC[n+]3ccc(/C=C/C=C4/Sc5ccccc5N4C)cc3)cc2)Sc2ccccc21.[I-].[I-].[I-].[I-] [BOBO-3]	570 nanometers and 571 nanometers	602 nanometers and 606 nanometers	
CCN(CC)c1ccc2c(-c3ccc(S(=O)(=O)NCCCCCC(=O)O)cc3S(=O)(=O)[O-])c3ccc(=[N+](CC)CC)cc-3oc2c1 [rhodamine Red-X]	572 nanometers	591 nanometers	
CCN1c2cc3c(cc2C(C)=CC1(C)C)C(=CC=CC1=[N+](CCCCCC(=O)O)c2ccc(S(=O)(=O)[O-])cc2C1(C)C)C=C(c1ccccc1)O3 [DY-675]	675 nanometers	699 nanometers	
CCCCCCCCCCCCCCCCCCN1/C(=C/C=C/C=C/C2=[N+](CCCCCCCCCCCCCCCCCC)c3ccccc3C2(C)C)C(C)(C)c2ccccc21.[O-][Cl+3]([O-])([O-])[O-] [DiD (Vybrant DiD)]	645 nanometers	670 nanometers	
